Several values for one entry are separate records, joined by “and”; a condition that tells them apart may be missing. Equal entries are not always repeated.
How the values were obtained:
[1] = tested on: SH-SY5Y human neuroblastoma cell line (differentiated phenotype); assay: Viability test, salsolinol-induced model of Parkinson's disease in differentiated SH-SY5Y (Calcein AM); format: cell-based; details: 24 h
Method: (§1) The SH-SY5Y human neuroblastoma cell line obtained as kind gift from Walter d'Acunto (originally purchased from ATCC—American Type Culture Collection (Manassas, VA, USA) was cultivated in Dulbecco's modified Eagle's Medium and Ham's F12 Nutrient Mixture (DMEM:F-12, 1:1), supplemented with 10% fetal bovine serum (FBS) and 1% penicillin and streptomycin at 37° C. in a humidified atmosphere 5% CO2, 95% air in passage limit up to ATCC+15. The assay was performed in 96-well microplate with 7000 SH-SY5Y cells per well. Next day, SH-SY5Y underwent all-trans retinoic acid (ATRA)-differentiation for 48 h (ATRA 10 μM). After 48 h, old DMEM/F12 media was removed by fresh media containing tested compounds at 0.1, 1 and 10 μM concentrations for 24 h. The tested compounds were dissolved in DMSO were added into the medium. The maximum concentration of DMSO in media was kept below 0.1% (v/v). The cell viability was measured by Calcein AM (1 mg/ml ThermoFisher) viability assay. Solution of Calcein AM in PBS (0.5 uM) was pipetted to cells and incubated for 50 minutes. After that the fluorescence was measured at 488/517 nm (excitation/emission) using microplate reader Infinite M200 (TECAN). Calcein AM assay is based on the dye-intracellular-esterase cleavage of non-fluorescent dye (Calcein AM) by living cells to fluorescent dye (Calcein), while dyeing cells that lose such ability. The values in Table 4 show % of viability, relative to control of all tested compounds. The control (medium with DMSO, <0.1% (v/v)) was postulated as 100% viability (see the first line of the table).
Similarly, to the previous test the assay was performed in 96-well microplates with 7000 SH-SY5Y cells per well. Day after the seeding of cells, SH-SY5Y underwent all-trans retinoic acid (ATRA)-differentiation for 48 h (ATRA 10 μM). After 48 h, old DMEM/F12 media was removed by fresh media containing 500 μM dopaminergic neurotoxin Salsolinol (SAL) without or with tested compounds at 0.1, 1 and 10 μM concentrations. […] After 24 h the cell viability was measured by Calcein AM viability assay.

[2] = tested on: SH-SY5Y human neuroblastoma cell line; assay: Oxidative stress measurement (dihydroethidium, superoxide) in SH-SY5Y, salsolinol-induced model of PD; format: cell-based; details: 6 h; for activity at 1 µM: 1 μM compound with SAL 500 μM; for activity at 1 µM / activity at 10 µM: read-out: Oxidative stress (% of control); for reduction of oxidative stress induced by Salsolinol (in words): SAL 500 μM, compounds 1 and 10 μM
Method: The assay was performed in 96-well microplate with 7000 cells/well. Next day, SH-SY5Y underwent differentiation protocol for 48 h see above. Treatment procedure remained the same as in previous section (Cell treatment and viability/cytotoxicity assays). Additionally, oxidative stress (OS) inducers such as 6-hydroxydopamine (6-OHDA) and glutamate (Glu) alone were used as […]. Negative controls determined threshold of excessive OS. […] After 30 minutes, DHE was read at 500 nm/580 nm (excitation/emission). DHE is cell permeable dye which is selective toward superoxide radical detection.

[3] = Calcein AM viability test on ATRA-differentiated SH-SY5Y cells; format: cell-based, human; details: human, ATRA-differentiated SH-SY5Y neuroblastoma cells, DMSO control = 100%, read-out: % of viability, relative to control; for viability at 24 h, 0.1 µM: 0.1 μM compound; for viability at 24 h, 1 µM: 1 μM compound; for viability at 24 h, 10 µM: 10 μM compound
Method: as §1

[4] = Radical scavenging activity by ORAC assay; details: NAUC relative to trolox; mean ± SD (n = 3)
Method: The ability of compounds to scavenge free radicals in vitro was determined by Oxygen Radical Absorbance Capacity (ORAC) method. In brief, fluorescein (100 μL, […]) and 25 μL of tested compound solution were added into each working well in a 96-well microplate preincubated at 37° C. Thereafter, 25 μL of 250 mM 2,2′-azobis(2-amidino-propan)dihydrochloride (AAPH) was quickly added, microplate was shaken for 5 s and the fluorescence (Ex. 485 nm, Em. 510 nm) was read every 3 min over 90 min by using microplate reader Infinite 200 (TECAN, Switzerland). The NAUC value (Net Area Under Curve) was used to express antioxidant activity relative to trolox (hydrophilic equivalent of vitamin E postulated as a standard). Substances with an ORAC value greater than 0 actively trap free radicals.

Nrf2 = assay: Activation of Nrf2-dependent expression, EpRE-LUX reporter cell line; format: cell-based; details: 24 h; tested at 100, 10, 1 and 0.1 μM, concentration of the printed value not stated; mean ± SD (n = 3)
Method: The ability of compounds to activate Nrf2-dependent expression was determined by EpRE-LUX reporter cell line. In brief, compounds at 100, 10, 1 and 0.1 μM concentrations of the tested compounds were incubated for 24 h with the cells. After cells lysis (10 mM Tris, 2 mM DTT), a buffer containing 0.2 mM luciferin was added to start luminescent reaction. The increase in luminescence was measured with microplate reader Infinite M200 (TECAN). Compounds with Nrf2 value higher than 0 are strong Nrf2 activators and thus will be useful agents for the treatment of neurodegenerative diseases associated with oxidative stress.

[5] = 0.1 μM compound with 500 μM Salsolinol
[6] = 1 μM compound with 500 μM Salsolinol
[7] = 10 μM compound with 500 μM Salsolinol
[8] = Homo sapiens, SH-SY5Y, 10 μM compound with SAL 500 μM

Row | Compound | Neuroprotective effect (% of control) [1, 5] | Neuroprotective effect (% of control) [1, 6] | Neuroprotective effect (% of control) [1, 7] | activity at 30 µM ([2]; Homo sapiens, SH-SY5Y, 6-OHDA 30 μM alone (negative control)) [%] | Oxidative stress (% of control) ([2]; Salsolinol 500 μM alone, DMSO control = 100%) | decrease in percentages of alive cells ([1]; 500 μM Salsolinol alone) [%] | viability at 24 h, 0.1 µM [3] [%] | viability at 24 h, 1 µM [3] [%] | viability at 24 h, 10 µM [3] [%] | ORAC (compound/trolox) [4] [compound/trolox] | Oxidative stress (% of control) ([2]; 10 μM compound with SAL 500 μM) | activity at 1 µM ([2]; Homo sapiens, SH-SY5Y) [%] | activity at 10 µM [2, 8] [%] | Nrf2 (relative luminiscence) (Nrf2) | reduction of oxidative stress induced by Salsolinol (in words) [2] | Oxidative stress (% of control) ([2]; Glu 160 mM alone (negative control))
1 | COc1cc2c(cc1OC)C(=O)C(CC1CCN(Cc3ccccc3)CC1)C2 (stereo not shown) [Donepezil, reference compound] | 2.76 % of control | 6.73 % of control | 14.25 % of control |  |  |  |  |  |  |  |  |  |  |  |  | 
2 | NCCc1cc(O)c(O)cc1O [Compound 6-OHDA, 6-hydroxydopamine, reference compound] |  |  |  | 215 |  |  |  |  |  |  |  |  |  |  |  | 
3 | C[C@@H]1NCCc2cc(O)c(O)cc21 [Salsolinol, reference compound] |  |  |  |  | 335.4 % of control and 335.36 % of control | 30.7 |  |  |  |  |  |  |  |  |  | 
4 | c1ccc(Cn2cnc3c(N4CCCCC4)nc(N4CCCC4)nc32)cc1 [Compound 78, 9-Benzyl-6-(piperidin-1-yl)-2-(pyrrolidin-1-yl)-9H-purine] | N/A (N/A = no protection) | 17.95 % of control | N/A (N/A = no protection) |  |  |  | 106 | 120 | 134 | 0.071 ± 0.005 | OS level reaching threshold of negative controls | 136 | 238 | 0.23 ± 0.03 |  | 
5 | Nc1nc(NCCc2ccc(O)cc2)nc2nc(-c3ccco3)nn12 [ZM241385, reference compound] | 1.95 % of control | 7.03 % of control | 9.31 % of control |  |  |  |  |  |  |  |  |  | 102 |  |  | 
6 | Clc1cccc(Cl)c1Cn1cnc2c(N3CCCC3)nc(N3CCCC3)nc21 [Compound 74, 9-(2,6-Dichlorobenzyl)-2,6-di(pyrrolidine-1-yl)-9H-purine] | 8.57 % of control | 20.24 % of control | 22.35 % of control |  |  |  | 111 | 138 | 152 |  |  | 126 | 179 | 0.38 ± 0.08 |  | 
7 | CC(=O)N(O)CCCCCNC(=O)CCC(=O)N(O)CCCCCNC(=O)CCC(=O)N(O)CCCCCN [Deferoxamine, reference compound] | 1.43 % of control | 4.86 % of control | 10.52 % of control |  |  |  |  |  |  |  |  |  | 101 |  |  | 
8 | Oc1ccc(Cn2cnc3c(N4CCCC4)nc(N4CCCC4)nc32)cc1 [Compound 30, 9-(4-hydroxybenzyl)-2,6-di(pyrrolidin-1-yl)-9H-purine] | 10.62 % of control |  | 26.41 % of control |  |  |  | 99.5 | 111 | 123 | 0.422 ± 0.034 |  | 95.9 | 97.4 | 0.29 ± 0.11 | highest potency toward the reduction of oxidative stress | 
9 | Oc1cccc(Cn2cnc3c(N4CCCC4)nc(N4CCCC4)nc32)c1 [Compound 26, 9-(3-Hydroxybenzyl)-2,6-di(pyrrolidin-1-yl)-9H-purine] | 4.90 % of control | 14.43 % of control | 20.71 % of control |  |  |  | 108 | 120 | 142 | 0.126 ± 0.018 |  | 107 | 142 | 0.33 ± 0.06 |  | 
10 | c1ccc(Cn2cnc3c(N4CCSCC4)nc(N4CCSCC4)nc32)cc1 [Compound 5, 9-benzyl-2,6-dithiomorpholino-9H-purine] | 7.03 % of control |  | 19.89 % of control |  |  |  | 106 | 126 | 129 | 0.016 ± 0.001 |  | 121 | 135 | 0.17 ± 0.06 | highest potency toward the reduction of oxidative stress | 
11 | c1ccc(Cn2cnc3c(N4CCCC4)nc(N4CCCCC4)nc32)cc1 [Compound 77, 9-Benzyl-2-(piperidin-1-yl)-6-(pyrrolidin-1-yl)-9H-purine] | 4.64 % of control | 12.11 % of control | 13.8 % of control |  |  |  | 107 | 118 | 117 | 0.028 ± 0.001 |  | 118 | 127 | 0.16 ± 0.04 |  | 
12 | N[C@@H](CCC(=O)O)C(=O)O [Glu, glutamate, reference compound] |  |  |  |  |  |  |  |  |  |  |  |  |  |  |  | 268.62 % of control
13 | c1ccc(Cn2cnc3c(N4CCOCC4)nc(N4CCOCC4)nc32)cc1 [Compound 4, 2,6-dimorpholino-9-benzylpurine] | 1.70 % of control | 8.11 % of control | 21.12 % of control |  |  |  | 106 | 113 | 146 | 0.007 ± 0.002 |  | 106 | 155 | 0.19 ± 0.02 |  | 

Source: patent US12319694B2, “Heterocyclic nitrogen-containing purine derivatives, pharmaceutical preparations containing these derivatives and their use in neuroprotection” (UNIVERZITA PALACKEHO, priority 2019, dated 2025)
